Assay [1] concerns STAT5 phosphorylation in HEL 92.1.7 cells. Briefly: Intracellular flow cytometric (FACS) analysis of STAT5 phosphorylation in HEL cells. It counts as cell-based, human. Particulars: HEL 92.1.7 cells, 0.25, 0.5, 1, or 2 μM, 2 hours. As for the experimental part: After treatment the cells were stained with mouse monoclonal anti-STAT5 (Y694) PE antibody and analyzed using fluorescence activated cell sorting (FACS). The histograms are shaded according to the fold change in median fluorescence relative to the isotype control (Isocont lane in clear outline).
The human erythroleukemic cell line, HEL 92.1.7 (ATCC, TIB-180), was grown in RPMI 1640 containing 10% PCS supplemented with 1 mM sodium pyruvate. For phosphor-STAT 5 determination, HEL cells were grown in RPMI 1640+1% PCS for 18 hours at 37° C. and 2×10^5 cells per assay point were exposed to DMSO/test compounds for 2 hours at 37° C. The cells were centrifuged at 1300 rpm for 3 minutes and fixed in paraformaldehyde (2% final concentration) for 15 minutes at 37° C. After centrifugation, cells were permeabilized in 90% methanol at 4° C. for 30 minutes. […]
Staining proceeded for 1 hour at room temperature in the dark, followed by 3 washes in PBS-2% FCS. […] The median fluorescence intensity (MFI) was used to determine fold change upon treatment of cells with specific inhibitor compounds, calculated as the MFIstimulated/MFIunstimulated ratio for the phosphospecific antibody fluorescence channel (FL2).
(Flow cytometry measures light scatter and fluorescence of single cells or particles in a stream.)

In assay [2] the test system is pYSTAT5 in erythroid cells (CD45lo, CD71hi) from bone marrow. Briefly: Ex vivo pYSTAT5 flow cytometry in erythroid cells from JAK2 V617F positive patients. Particulars: 3 μM to 0.0041 μM, one hour, erythropoietin stimulated 10 minutes, patient bone marrow. It counts as cell-based, human. The text has this: To assess the activity of small molecule inhibitors of JAK2 an assay has been developed to quantify the activity of the JAK-STAT pathway by measuring the phosphorylation status of the downstream protein STAT5. After ligand binding, a haemopoietic cytokine receptor undergoes conformational change activating associated JAK2 protein. Activated JAK2 then phosphorylates the intracellular portion of the receptor forming binding sites for the recruitment of intracellular signaling proteins. […]
Results of flow cytometry experiments are presented in two different formats (FIG. 7C). The pYSTAT5 positive population is quantitated as the percentage of cells in the upper right quadrant of the dot plot graphs (FIGS. 7A and B). […]
The second format of presentation is presented in the right panel of FIG. 7C. This measurement represents the mean fluorescence intensity in the pYSTAT5 channel and includes both erythroid cells that are stimulated by EPO and those that are not. This is an absolute value measurement of fluorescence and there was variability between these values between the three individuals tested. As the concentration of inhibitor is decreased the mean fluorescence of the total erythroid population moved towards the value of the positive control.

Structures are written as SMILES.

Regarding `N#CCNC(=O)c1ccc(-c2ccnc(Nc3ccc(N4CCOCC4)cc3)n2)cc1` [Compound 3, N-(cyanomethyl)-4-(2-(4-morpholinophenyl-amino)pyrimidin-4-yl)benzamide], the “effect on STAT5 phosphorylation (FACS)” value in assay [1] is listed as “dose-dependent effect”. The “effect on pYSTAT5 (STAT5 phosphorylation) in erythroid cells” value in assay [2] is “dose-dependent reduction”; in assay [2] (listed as compound 3), “dose-dependent increase in inhibition”.

The values above are taken from patent US12570614B2, “Phenyl amino pyrimidine compounds and uses thereof” (GlaxoSmithKline LLC, priority 2007, dated 2026).
